Reference: ChEMBL document CHEMBL4351029, “Design and evaluation of pyrazolopyrimidines as KCNQ channel modulators” (Bioorg Med Chem Lett, 2019)

How the values were obtained:
[1] = molecular target: Voltage-gated potassium channel, KQT; KCNQ2(Kv7.2)/KCNQ3(Kv7.3) (Homo sapiens) (UniProt O43526+O43525); assay: Agonist activity at human KCNQ2/3 expressed in HEK293 cells by FLIPR based thallium influx assay relative to retigabine; assay type: cell-based
[2] = molecular target: Voltage-gated potassium channel, KQT; KCNQ2(Kv7.2)/KCNQ3(Kv7.3) (Homo sapiens, UniProt O43525+O43526); assay: Agonist activity at human KCNQ2/3 expressed in HEK293 cells by FLIPR based thallium influx assay; assay type: cell-based
Rattus norvegicus [3] = assay: Antiallodynic activity in rat model of capsaicin-induced mechanical hyperalgesia assessed as increase in paw withdrawal threshold at 10 mg/kg, ip administered 30 mins before capsaicin addition relative to control; assay type: functional
[4] = Plasma clearance in rat at 1 mg/kg. iv; assay type: ADME, organism-based
Rattus norvegicus [5] = assay: Antiallodynic activity in rat model of capsaicin-induced mechanical hyperalgesia assessed as increase in paw withdrawal threshold at 30 mg/kg, ip administered 30 mins before capsaicin addition relative to control; assay type: functional
[6] = Ratio of drug level in brain to plasma in rat; assay type: ADME; conditions: read-out: BPR
[7] = AUC in rat at 1 mg/kg, po; assay type: ADME, organism-based; conditions: in vivo
[8] = Oral bioavailability in rat at 1 mg/kg; assay type: ADME, organism-based; conditions: in vivo
Rattus norvegicus [9] = assay: Antiallodynic activity in rat model of capsaicin-induced mechanical hyperalgesia assessed as increase in paw withdrawal threshold at 3 mg/kg, ip administered 30 mins before capsaicin addition relative to control; assay type: functional
Rattus norvegicus [10] = assay: Antiallodynic activity in ip dosed rat model of capsaicin-induced mechanical hyperalgesia assessed as increase in paw withdrawal threshold administered 30 mins before capsaicin addition; assay type: functional, organism-based
[11] = Half life in rat at 1 mg/kg, iv; assay type: ADME, organism-based; conditions: in vivo
Rattus norvegicus [12] = assay: Antiallodynic activity in rat model of capsaicin-induced mechanical hyperalgesia assessed as increase in paw withdrawal threshold at 100 mg/kg, ip administered 30 mins before capsaicin addition relative to control; assay type: functional

Sequence of Voltage-gated potassium channel, KQT; KCNQ2(Kv7.2)/KCNQ3(Kv7.3) (O43526 whole entry): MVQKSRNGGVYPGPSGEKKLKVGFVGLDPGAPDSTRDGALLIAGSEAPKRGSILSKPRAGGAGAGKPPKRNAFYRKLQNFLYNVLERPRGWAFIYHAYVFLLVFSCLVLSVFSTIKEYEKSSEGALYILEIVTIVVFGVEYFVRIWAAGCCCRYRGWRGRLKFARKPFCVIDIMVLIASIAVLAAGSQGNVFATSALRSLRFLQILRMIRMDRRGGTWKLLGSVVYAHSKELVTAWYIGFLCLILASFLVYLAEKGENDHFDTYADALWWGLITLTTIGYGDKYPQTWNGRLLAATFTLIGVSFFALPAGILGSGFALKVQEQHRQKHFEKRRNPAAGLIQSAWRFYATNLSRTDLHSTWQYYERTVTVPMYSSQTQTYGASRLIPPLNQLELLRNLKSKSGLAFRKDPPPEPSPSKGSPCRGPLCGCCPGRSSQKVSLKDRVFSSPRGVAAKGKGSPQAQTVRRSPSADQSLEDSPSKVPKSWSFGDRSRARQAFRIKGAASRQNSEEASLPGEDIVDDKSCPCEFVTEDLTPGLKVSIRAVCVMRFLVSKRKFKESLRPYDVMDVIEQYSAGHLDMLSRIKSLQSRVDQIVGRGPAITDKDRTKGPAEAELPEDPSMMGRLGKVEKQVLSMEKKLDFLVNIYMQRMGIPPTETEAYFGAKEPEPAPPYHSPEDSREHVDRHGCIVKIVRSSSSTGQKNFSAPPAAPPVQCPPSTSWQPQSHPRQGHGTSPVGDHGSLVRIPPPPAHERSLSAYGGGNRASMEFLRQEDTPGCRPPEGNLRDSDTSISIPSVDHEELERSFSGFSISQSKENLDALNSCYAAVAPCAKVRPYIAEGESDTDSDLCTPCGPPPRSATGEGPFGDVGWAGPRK
Sequence of Voltage-gated potassium channel, KQT; KCNQ2(Kv7.2)/KCNQ3(Kv7.3) (O43525 whole entry): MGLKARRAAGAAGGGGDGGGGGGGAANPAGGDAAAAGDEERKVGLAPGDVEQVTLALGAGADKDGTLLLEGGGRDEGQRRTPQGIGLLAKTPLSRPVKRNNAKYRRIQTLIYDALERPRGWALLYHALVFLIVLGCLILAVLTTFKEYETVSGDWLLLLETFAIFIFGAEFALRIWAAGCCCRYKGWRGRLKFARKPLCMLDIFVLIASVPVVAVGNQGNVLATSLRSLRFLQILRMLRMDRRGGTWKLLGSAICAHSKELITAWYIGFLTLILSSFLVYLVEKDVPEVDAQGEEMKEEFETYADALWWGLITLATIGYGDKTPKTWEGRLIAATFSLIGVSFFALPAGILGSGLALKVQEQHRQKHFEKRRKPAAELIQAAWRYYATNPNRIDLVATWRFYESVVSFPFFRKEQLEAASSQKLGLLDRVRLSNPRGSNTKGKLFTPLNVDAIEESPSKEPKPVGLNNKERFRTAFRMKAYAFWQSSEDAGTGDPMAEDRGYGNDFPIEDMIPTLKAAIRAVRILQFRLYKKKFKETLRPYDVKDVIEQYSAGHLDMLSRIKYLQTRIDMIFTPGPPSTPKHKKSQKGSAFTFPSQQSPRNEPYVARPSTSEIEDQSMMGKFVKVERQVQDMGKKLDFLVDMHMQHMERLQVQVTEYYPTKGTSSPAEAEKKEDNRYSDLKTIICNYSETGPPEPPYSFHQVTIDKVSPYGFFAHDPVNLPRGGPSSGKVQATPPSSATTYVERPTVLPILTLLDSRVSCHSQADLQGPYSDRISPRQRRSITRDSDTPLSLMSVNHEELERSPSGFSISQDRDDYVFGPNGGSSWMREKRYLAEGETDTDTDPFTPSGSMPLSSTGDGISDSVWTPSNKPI

O=C(Nc1nn2cccnc2c1-c1ccc(F)cc1)C1CCCC1
Emax [1]: 20%
EC50 [2]: > 32000 nM

O=C(CCC1CCCCC1)Nc1nn2cccnc2c1-c1ccccc1
EC50 [2]: 130 nM

CC(C)(C)CC(=O)Nc1nn2cccnc2c1-c1ccc(C(F)(F)F)cc1
Emax [1]: 113%
EC50 [2]: 140 nM

CCOC(=O)Nc1ccc(NCc2ccc(F)cc2)cc1N [EZOGABINE]
Emax [1]: 99%
EC50 [2]: 4380 nM

CCOC(=O)Nc1ccc(NCc2ccc(F)cc2)nc1N [FLUPIRTINE]
Emax [1]: 112%
EC50 [2]: 560 nM

O=C(CCC1CCCC1)Nc1nn2cccnc2c1-c1ccc(OC(F)(F)F)cc1
EC50 [2]: 310 nM

Cc1cnc2c(-c3ccc(F)c(C)c3)c(NC(=O)CC3CCCC3)nn2c1
Emax [1]: 168%
EC50 [2]: 140 nM

Cc1cc(C)n2nc(NC(=O)CC(C)(C)C)c(-c3ccc(F)c(C)c3)c2n1
EC50 [2]: 50 nM

O=C(CC1CCCC1)Nc1nn2cccnc2c1-c1ccc(OC(F)(F)F)cc1
Emax [1]: 88%
EC50 [2]: 190 nM

Cc1cnc2c(-c3ccc(F)c(C)c3)c(NC(=O)CCC3CCCC3)nn2c1
EC50 [2]: 80 nM

CC(C)(C)CC(=O)Nc1nn2cccnc2c1-c1ccc(OC(F)(F)F)cc1
Activity (Rattus norvegicus [3]): 26%
clearance [4]: 13.3 mL/min/kg
Activity (Rattus norvegicus [5]): 52%
Kp [6]: 3.8
AUC [7]: 706 ng·h/mL
bioavailability [8]: 56%
Activity (Rattus norvegicus [9]): 10%
EC50 [2]: 410 nM
Activity (Rattus norvegicus [10]): Dose-dependent effect
half-life [11]: 1.9 h

O=C(CCC1CCCC1)Nc1nn2cccnc2c1-c1ccc(F)cc1
EC50 [2]: 140 nM

Cc1cc(-c2c(NC(=O)CC3CCCC3)nn3cccnc23)ccc1F
Emax [1]: 139%
EC50 [2]: 1170 nM

Cc1cc(-c2c(NC(=O)CCC3CCCC3)nn3cccnc23)ccc1F
Emax [1]: 169%
EC50 [2]: 180 nM

CC(C)(C)CC(=O)Nc1nn2cccnc2c1-c1ccc(F)cc1
EC50 [2]: 6800 nM

O=C(CC1CCCC1)Nc1nn2cccnc2c1-c1ccc(F)cc1
Emax [1]: 100%
EC50 [2]: 1000 nM

CC(C)(C)CC(=O)Nc1nn2cccnc2c1-c1ccccc1
Emax [1]: 26%

Cc1cnc2c(-c3ccc(F)c(C)c3)c(NC(=O)CC(C)(C)C)nn2c1
Emax [1]: 159%
EC50 [2]: 590 nM

Cc1cc(C)n2nc(NC(=O)CC3CCCC3)c(-c3ccc(F)c(C)c3)c2n1
Emax [1]: 165%
EC50 [2]: 70 nM

NCC1(CC(=O)O)CCCCC1 [GABAPENTIN]
Activity (Rattus norvegicus [12]): 70%

Cc1cc(-c2c(NC(=O)CC(C)(C)C)nn3cccnc23)ccc1F
Emax [1]: 135%
EC50 [2]: 2310 nM

CC(C)(C)CC(=O)Nc1nn2c(C(C)(C)C)ccnc2c1-c1ccc(OC(F)(F)F)cc1
EC50 [2]: > 32000 nM

O=C(CC1CCCC1)Nc1nn2cccnc2c1-c1ccc(C(F)(F)F)cc1
Emax [1]: 28%

O=C(CC1CCCCC1)Nc1nn2cccnc2c1-c1ccccc1
Emax [1]: 133%
EC50 [2]: 290 nM

CC(C)(C)c1ccnc2c(NC(=O)Cc3cc(F)cc(F)c3)cnn12
Emax [1]: 149%
EC50 [2]: 910 nM

Cc1cc(C)n2nc(NC(=O)CCC3CCCC3)c(-c3ccc(F)c(C)c3)c2n1
Emax [1]: 205%
EC50 [2]: 70 nM

O=C(Nc1nn2cccnc2c1-c1ccccc1)C1CCCCC1
Emax [1]: 8%

O=C(CCC1CCCC1)Nc1nn2cccnc2c1-c1ccc(C(F)(F)F)cc1
EC50 [2]: 50 nM
